Test results reported in US6358885B1, “Substituted phenylheterocyclic herbicides” (Mississippi State University, priority 1992, dated 2002).

Legend:
velvetleaf = assay: Test B preemergence/postemergence greenhouse plant response rating 0 to 10; type: in vivo, Abutilon theophrasti; details: 0 to 10 scale
Summary of the method: (§1)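 Test chemicals, dissolved in a non-phytotoxic solvent, were applied to soil at planting and, at the same time, over foliage of seedlings at the one to four leaf stage.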

chickweed = assay: Test C preemergence/postemergence greenhouse plant response rating 0 to 100; type: in vivo, Stellaria media; details: POSTEMERGENCE; for Plant response rating, Chickweed: 0 to 100 scale
Summary of the method: (§2)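 Compounds in non-phytotoxic solvent went onto sandy loam before emergence (seeded one day earlier) or onto plants at the one-to-four leaf stage. Duck salad was treated via flood water (~2.5 cm, maintained) over silt loam.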

cheatgrass = assay: Test B preemergence/postemergence greenhouse plant response rating 0 to 10; type: in vivo, Bromus secalinus; details: for Plant response rating, Cheatgrass: 0 to 10 scale
Summary of the method: as §1

morningglory [1] = assay: Test C preemergence/postemergence greenhouse plant response rating 0 to 100; type: in vivo, Ipomoea hederacea; details: POSTEMERGENCE; for Plant response rating, Morningglory: 0 to 100 scale
Summary of the method: as §2

giant foxtail [2] = assay: Test B preemergence/postemergence greenhouse plant response rating 0 to 10; type: in vivo, Setaria faberii; details: 0 to 10 scale
Summary of the method: as §1

barley [3] = assay: Test C preemergence/postemergence greenhouse plant response rating 0 to 100; type: in vivo, Hordeum vulgare; details: POSTEMERGENCE; for Plant response rating Barley Igri: 0 to 100 scale
Summary of the method: as §2

soybean [4] = assay: as above; type: in vivo, Glycine max; details: POSTEMERGENCE; for Plant response rating, Soybean: 0 to 100 scale
Summary of the method: as §2

soybean [5] = assay: Test B preemergence/postemergence greenhouse plant response rating 0 to 10; type: in vivo, Glycine max; details: 0 to 10 scale
Summary of the method: as §1

rape = assay: Test C preemergence/postemergence greenhouse plant response rating 0 to 100; type: in vivo, Brassica napus; details: POSTEMERGENCE; for Plant response rating, Rape: 0 to 100 scale
Summary of the method: as §2

cocklebur = assay: Test B preemergence/postemergence greenhouse plant response rating 0 to 10; type: in vivo, Xanthium pensylvanicum; details: for Plant response rating, Cocklebur: 0 to 10 scale
Summary of the method: as §1

barley [6] = assay: as above; type: in vivo, Hordeum vulgare; details: for Plant response rating, Barley: 0 to 10 scale
Summary of the method: as §1

giant foxtail [7] = assay: Test C preemergence/postemergence greenhouse plant response rating 0 to 100; type: in vivo, Setaria faberii; details: POSTEMERGENCE; for Plant response rating, Giant foxtail: 0 to 100 scale
Summary of the method: as §2

bedstraw = assay: Test B preemergence/postemergence greenhouse plant response rating 0 to 10; type: in vivo, Galium aparine; details: for Plant response rating, Bedstraw: 0 to 10 scale
Summary of the method: as §1

lambsquarters = assay: as above; type: in vivo, Chenopodium album; details: 0 to 10 scale
Summary of the method: as §1

sorghum = assay: Test C preemergence/postemergence greenhouse plant response rating 0 to 100; type: in vivo, Sorghum bicolor; details: POSTEMERGENCE; for Plant response rating, Sorghum: 0 to 100 scale
Summary of the method: as §2

morningglory [8] = assay: Test B preemergence/postemergence greenhouse plant response rating 0 to 10; type: in vivo, Ipomoea hederacea; details: 0 to 10 scale
Summary of the method: as §1

rice = assay: Test C flood test plant response rating 0 to 100; type: in vivo, Oryza sativa; details: for Plant response rating Rice Japonica: flood test species listed under POSTEMERGENCE, 0 to 100 scale
Summary of the method: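 Compounds in non-phytotoxic solvent applied preemergence to sandy loam one day after planting, postemergence at the 1–4 leaf stage, or to ~2.5 cm floodwater over silt loam.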

blackgrass = assay: Test C preemergence/postemergence greenhouse plant response rating 0 to 100; type: in vivo, Alopecurus myosuroides; details: POSTEMERGENCE; for Plant response rating, Blackgrass: 0 to 100 scale
Summary of the method: as §2

Compound: COC(=O)C(C)Oc1cc(-c2nn3c(c2Cl)CCCC3)c(F)cc1Cl (stereo not drawn) [Compound 28]
- Plant response rating, Velvetleaf (velvetleaf; POSTEMERGENCE, Rate 50 g/ha): 10
- Plant response rating, Velvetleaf (velvetleaf; POSTEMERGENCE, Rate 200 g/ha): 10
- Plant response rating, Velvetleaf (velvetleaf; PREEMERGENCE, Rate 50 g/ha): 5
- Plant response rating, Velvetleaf (velvetleaf; Rate 200 g/ha, PREEMERGENCE): 10
- Plant response rating, Chickweed (chickweed; 62 g/ha): 80
- Plant response rating, Chickweed (chickweed; 250 g/ha): 80
- Plant response rating (0 to 100), Chickweed (chickweed; Rate 4 g/ha): 20
- Plant response rating (0 to 100), Chickweed (chickweed; Rate 16 g/ha): 50
- Plant response rating (0 to 10 scale), Cheatgrass (cheatgrass; POSTEMERGENCE, Rate 50 g/ha): 6
- Plant response rating, Cheatgrass (cheatgrass; POSTEMERGENCE, Rate 200 g/ha): 9
- Plant response rating, Cheatgrass (cheatgrass; PREEMERGENCE, Rate 50 g/ha): 4
- Plant response rating, Cheatgrass (cheatgrass; Rate 200 g/ha, PREEMERGENCE): 6
- Plant response rating, Morningglory (morningglory [1]; 62 g/ha): 100
- Plant response rating, Morningglory (morningglory [1]; 250 g/ha): 100
- Plant response rating (0 to 100), Morningglory (morningglory [1]; Rate 4 g/ha): 50
- Plant response rating (0 to 100), Morningglory (morningglory [1]; Rate 16 g/ha): 80
- Plant response rating, Giant foxtail (giant foxtail [2]; POSTEMERGENCE, Rate 50 g/ha): 5
- Plant response rating, Giant foxtail (giant foxtail [2]; POSTEMERGENCE, Rate 200 g/ha): 8
- Plant response rating, Giant foxtail (giant foxtail [2]; PREEMERGENCE, Rate 50 g/ha): 0
- Plant response rating, Giant foxtail (giant foxtail [2]; Rate 200 g/ha, PREEMERGENCE): 5
- Plant response rating Barley Igri (barley [3]; 62 g/ha): 40
- Plant response rating Barley Igri (barley [3]; 250 g/ha): 50
- Plant response rating (0 to 100), Barley Igri (barley [3]; Rate 4 g/ha): 20
- Plant response rating (0 to 100), Barley Igri (barley [3]; Rate 16 g/ha): 30
- Plant response rating, Soybean (soybean [4]; 62 g/ha): 70
- Plant response rating, Soybean (soybean [4]; 250 g/ha): 80
- Plant response rating (0 to 100), Soybean (soybean [4]; Rate 4 g/ha): 0
- Plant response rating (0 to 100), Soybean (soybean [4]; Rate 16 g/ha): 30
- Plant response rating, Soybean (soybean [5]; POSTEMERGENCE, Rate 50 g/ha): 8
- Plant response rating, Soybean (soybean [5]; POSTEMERGENCE, Rate 200 g/ha): 9
- Plant response rating, Soybean (soybean [5]; PREEMERGENCE, Rate 50 g/ha): 0
- Plant response rating, Soybean (soybean [5]; Rate 200 g/ha, PREEMERGENCE): 0
- Plant response rating, Rape (rape; 62 g/ha): 100
- Plant response rating, Rape (rape; 250 g/ha): 100
- Plant response rating (0 to 100), Rape (rape; Rate 4 g/ha): 50
- Plant response rating (0 to 100), Rape (rape; Rate 16 g/ha): 70
- Plant response rating (0 to 10 scale), Cocklebur (cocklebur; POSTEMERGENCE, Rate 50 g/ha): 9
- Plant response rating, Cocklebur (cocklebur; POSTEMERGENCE, Rate 200 g/ha): 10
- Plant response rating, Cocklebur (cocklebur; PREEMERGENCE, Rate 50 g/ha): 0
- Plant response rating, Cocklebur (cocklebur; Rate 200 g/ha, PREEMERGENCE): 1
- Plant response rating (0 to 10 scale), Barley (barley [6]; POSTEMERGENCE, Rate 50 g/ha): 6
- Plant response rating, Barley (barley [6]; POSTEMERGENCE, Rate 200 g/ha): 6
- Plant response rating, Barley (barley [6]; PREEMERGENCE, Rate 50 g/ha): 0
- Plant response rating, Barley (barley [6]; Rate 200 g/ha, PREEMERGENCE): 0
- Plant response rating, Giant foxtail (giant foxtail [7]; 62 g/ha): 100
- Plant response rating, Giant foxtail (giant foxtail [7]; 250 g/ha): 100
- Plant response rating (0 to 100), Giant foxtail (giant foxtail [7]; Rate 4 g/ha): 20
- Plant response rating (0 to 100), Giant foxtail (giant foxtail [7]; Rate 16 g/ha): 60
- Plant response rating (0 to 10 scale), Bedstraw (bedstraw; POSTEMERGENCE, Rate 50 g/ha): 9
- Plant response rating, Bedstraw (bedstraw; POSTEMERGENCE, Rate 200 g/ha): 10
- Plant response rating, Bedstraw (bedstraw; PREEMERGENCE, Rate 50 g/ha): 8
- Plant response rating, Bedstraw (bedstraw; Rate 200 g/ha, PREEMERGENCE): 10
- Plant response rating, Lambsquarter (lambsquarters; POSTEMERGENCE, Rate 50 g/ha): 10
- Plant response rating, Lambsquarter (lambsquarters; POSTEMERGENCE, Rate 200 g/ha): 10
- Plant response rating, Lambsquarter (lambsquarters; PREEMERGENCE, Rate 50 g/ha): 10
- Plant response rating, Lambsquarter (lambsquarters; Rate 200 g/ha, PREEMERGENCE): 10
- Plant response rating, Sorghum (sorghum; 62 g/ha): 100
- Plant response rating, Sorghum (sorghum; 250 g/ha): 100
- Plant response rating (0 to 100), Sorghum (sorghum; Rate 4 g/ha): 20
- Plant response rating (0 to 100), Sorghum (sorghum; Rate 16 g/ha): 50
- Plant response rating, Morningglory (morningglory [8]; POSTEMERGENCE, Rate 50 g/ha): 8
- Plant response rating, Morningglory (morningglory [8]; POSTEMERGENCE, Rate 200 g/ha): 10
- Plant response rating, Morningglory (morningglory [8]; PREEMERGENCE, Rate 50 g/ha): 3
- Plant response rating, Morningglory (morningglory [8]; Rate 200 g/ha, PREEMERGENCE): 3
- Plant response rating (0 to 100), Rice Japonica (rice; POSTEMERGENCE section, flood test, Rate 4 g/ha): 0
- Plant response rating (0 to 100), Rice Japonica (rice; Rate 16 g/ha, under POSTEMERGENCE head (flood test species)): 45
- Plant response rating Rice Japonica (rice; 62 g/ha): 65
- Plant response rating Rice Japonica (rice; 250 g/ha): 85
- Plant response rating, Blackgrass (blackgrass; 62 g/ha): 50
- Plant response rating, Blackgrass (blackgrass; 250 g/ha): 70
- Plant response rating (0 to 100), Blackgrass (blackgrass; Rate 4 g/ha): 20
- Plant response rating (0 to 100), Blackgrass (blackgrass; Rate 16 g/ha): 30
